Series [1] relates to Plasmodium falciparum, Sierra Leone clone D6. The experiment in a line: Inhibition of P. falciparum proliferation, [G-3H]-hypoxanthine incorporation, Sierra Leone clone D6 (chloroquine-sensitive). To be noted: for IC50: Plasmodium falciparum. The format is cell-based. On the procedure:
3. Effects of pyrimidine analogues alone or in combination with normal pyrimidine bases or nucleosides or with amino acid derivatives can be tested in malaria parasite-infected erythrocytes. Varying concentrations of pyrimidine analogues in culture medium are added to individual wells of microtitre plates [Desjardins, R. E. et al., Antimicrob. […] Parasitemic erythrocytes in culture medium are added to each well. […] As an alternative to adding a radioactive precursor of nucleic acid biosynthesis, the end point for determining the effects of added drugs can be the incorporation of a radioactive amino acid, e.g., [U-^14 C]-isoleucine, into parasite protein.
Fluoropyrimidines, dispersed in 25 μl of culture medium, were added to individual wells of a 96-well microtitre plate. […] Finally, the incorporation of 0.5 μCi of [G-^3 H]hypoxanthine (1 Ci/mmol) into nucleic acids in each well was determined; this served as a measure of parasite proliferation. […] In a second method, the increase in parasitemia was determined directly by smearing infected erythrocytes on microscope slides, staining with Giemsa stain, and determining the ratio of infected to non-infected erythrocytes. In a third method, parasite-infected erythrocytes were incubated with [U-^14 C]-isoleucine (0.5 μCi; 0.33 Ci/mmol), and the amount of radioactivity incorporated into precipitable proteins determined.

Series [2] has as its system Plasmodium falciparum, Sierra Leone clone. Kind of series: Increase in parasitemia by light microscopy (Giemsa-stained smears), Sierra Leone clone. The format is cell-based, P. falciparum. Particulars: Table 2, light microscopy. As for the experimental part: Additionally, parasite-infected and treated erythrocytes can be smeared on microscope slides, stained with, e.g., Giemsa stain, and the ratio of infected to non-infected erythrocytes determined.
(§1) The chloroquine-sensitive Sierra Leone clone of P. falciparum was cultured in erythrocytes as in Example 1 above. In one method of determining the toxicity of 5-fluoro-orotate, [G-^3 H]-hypoxanthine uptake was used as an indicator of parasite proliferation, according to the procedure of Example 1 above. In a second method, the increase in parasitemia was determined directly by smearing infected erythrocytes on microscope slides, staining with Giemsa stain, and determining the ratio of infected to non-infected erythrocytes. In a third method, parasite-infected erythrocytes were incubated with [U-^14 C]-isoleucine (0.5 μCi; 0.33 Ci/mmol), and the amount of radioactivity incorporated into precipitable proteins determined.

Series [3] has the same test system. The experiment in a line: [U-14C]-isoleucine incorporation into parasite protein, Sierra Leone clone. To be noted: Table 2, isoleucine uptake. The format is cell-based, P. falciparum. As for the experimental part: 3. […] Agents Chemotherap., 16:710-18 (1979)].
as §1

The subject of a further series is P. yoelii. Kind of series: Anti-malarial activity in P. yoelii-infected mice. The format is in vivo, P. yoelii in Swiss white mice. As for the experimental part: FIG. 4 illustrates the effect of 5-fluoro-orotate treatment on blood parasitemia. Mice infected with P. yoelii on day 0 in experiments 1 and 2 were treated with (A) 0.2 mg/kg 5-fluoro-orotate, (B) 1 mg/kg, or (C) 5 mg/kg every 4 hours for three days. Control mice (.largecircle., .circle-solid., respectively), received no drug. Open symbols represent treatment without uridine (experiment 1: .smallcircle., .quadrature., .diamond., Δ), and filled symbols represent animals also treated with uridine (experiment 2: .circle-solid., .box-solid., .diamond-solid., .tangle-solidup.). Animals were treated with 5-fluoro-orotate on days 3 to 6. Animals were also treated with uridine in experiment 2 on days 3 to 9.
FIG. 5 illustrates the survival rate of mice infected with P. yoelii and treated with 5-fluoro-orotate, alone or in combination with uridine. Mice were treated with (A) 0.2 mg/kg 5-fluoro-orotate, (B) 1 mg/kg, or (C) 5 mg/kg. Control mice received no 5-fluoro-orotate (.largecircle., .circle-solid., respectively). Open symbols represent treatment without uridine (experiment 1: .largecircle., .quadrature., .diamond., Δ), and closed symbols represent animals also receiving uridine (experiment 2: .circle-solid., .box-solid., .diamond-solid., .tangle-solidup.).
(§2) A second in vivo test system can be used to determine if repeated administration of the pyrimidine analogue would have safe anti-malarial activity. In this test system, groups of animals are infected with malaria parasites. At a time when blood parasitemia is reached, the animals are injected with saline alone (control) or with various concentrations of one or more pyrimidine analogues alone or together with one or more rescuing pyrimidine bases or nucleosides at a single concentration, at intervals, over a period of several days. In order to determine the prophylactic effectiveness of the rescuing pyrimidine base or nucleoside, the animals are pretreated with such a base or nucleoside prior to the administration of the pyrimidine analogue. Anti-malarial activity of the treatments is estimated by determining blood parasitemia on the animals at appropriate times. The safety of the treatments is estimated by monitoring animals for weight loss and diarrhea, as these are early symptoms of pyrimidine analogue toxicity [Houghton, J. A., et al., Cancer Res., 39:2406-13 (1979)].
Swiss white mice (25-30 g) were divided into groups of five. On day 0, each mouse was infected by intraperitoneal injection of 10^5 erythrocytic forms of P. yoelii. Starting on day 3, when the blood parasitemia had reached between 5 and 12%, the mice were injected intraperitoneally every 4 hours for three consecutive days with 200 μl of various formulations. […]

A short description of series [4]: Host toxicity in P. yoelii-infected mice (diarrhea, weight loss, tolerance). The format is in vivo, Swiss white mice. As for the experimental part: FIG. 6 illustrates the weight changes in mice receiving 5 mg/kg of 5-fluoro-orotate without (Δ) or with (.tangle-solidup.) uridine. The pyrimidine analogue was administered on days 3 to 6. The pyrimidine nucleoside was given to mice in experiment 2 on days 3 to 9. Data points represent mean weights of mice that remained alive during the course of experiments 1 and 2 (see FIG. 5C). Error bars represent standard deviations from the mean.
as §2
Swiss white mice (25-30 g) were divided into groups of five. On day 0, each mouse was infected by intraperitoneal injection of 10^5 erythrocytic forms of P. yoelii. Starting on day 3, when the blood parasitemia had reached between 5 and 12%, the mice were injected intraperitoneally every 4 hours for three consecutive days with 200 μl of various formulations. In experiment 1, three groups of mice received 0.2, 1, or 5 mg/kg of 5-fluoro-orotate per injection, respectively. An accompanying control group received saline. In experiment 2, three groups of mice received 0.2, 1, or 5 mg/kg of 5-fluoro-orotate plus 800 mg/kg of uridine in a 200 μl saline formulation. An accompanying control group received 800 mg/kg of uridine alone. In experiment 2, mice were pretreated with one injection of 800 mg/kg of uridine two hours before receiving the first injection of 5-fluoro-orotate. Additionally, even though treatment with the pyrimidine analogue stopped on day 6, these mice continued to receive 1500 mg/kg of uridine, three times a day, for three additional days (i.e., up to day 9).

Each structure is given as a SMILES string. Bounds are passed on as bounds.

Take `O=C(O)c1[nH]c(=O)[nH]c(=O)c1F` [5-fluoro-orotate]: the IC50 (in general, the midpoint of a concentration-inhibition curve) came out at 2.2 nM in series [1] (D6, Example 3, Table 2, hypoxanthine uptake); 5.8 ± 3.1 nM in series [1] (D6, Sierra Leone clone, Table 1, mean ± S.D. of five independent drug response curves); 2.5 nM in series [2]; 4.7 nM in series [3]. Besides, the “times more active than chloroquine” value in series [1] (chloroquine-sensitive Sierra Leone clone) is recorded as 1.6 times. In addition, the “time to return of parasitemia after end of treatment” value in the series with P. yoelii (0.2 mg/kg, treatment stopped day 6) is at most 24 h. For the same compound, the “transient parasitemia after rechallenge” value in the series on P. yoelii (10^6 P. yoelii parasites, days 2 to 4, 0.2 mg/kg group) is “less than 0.05%”. Moreover, the “time to resolution of second surge of parasitemia” value in the series with P. yoelii (low doses (0.2 and 1 mg/kg), no additional drug) is reported as at most 14 days. In addition, in series [4] (5 mg/kg every 4 hours), the “tolerance of highest dose” value is given as “tolerated only when uridine was administered in combination with 5-fluoro-orotate”. The “mortality at higher doses” value in series [4] (experiment 1, 1 and 5 mg/kg, no uridine) is given as “dose-dependent increase in mortality”. Further, the “diarrhea in surviving mice” value in series [4] (experiment 1, higher doses, no uridine) was “showed signs of diarrhea”. For the same compound, the weight loss result in series [4] (experiment 2, 5 mg/kg with uridine (FIG. 6)) is listed as “no weight loss”. Besides, the diarrhea entry in series [4] (experiment 2, with uridine) is “no mouse had diarrhea”.

Source of the values: patent US6159953A, “Anti-malarial composition and method of use” (Catholic University of America, priority 1992, dated 2000).
